Data reported in patent US20220280663A1, “[…] TARGETED […] ACTIVE SUBSTANCE OR LABEL […] SYSTEM” (CELLIS AG, priority 2016, published 2022).

Assays:
CD45^+ leukocyte cell = test: Uptake and storage of iron binding proteins by CD45+ leukocyte cells; format: cell-based; conditions: incubation 1-4 hours in protein solution (ferritin 0.8 mg/ml; haemoglobin, transferrin 0.1 mg/ml), standard culture conditions
Procedure: Obtained cells are incubated in ferritin solution for a time and at the concentration sufficient to ensure proper ratio of ferritin/cell for their full load and also to ensure proper drug content to obtain therapeutic effect or contrast for proper imaging. The time and concentration may vary depending on the number of molecules encapsulated/adsorbed into the ferritin cage, status of cell activation, condition and number of their intended administration.
For example, to ensure proper load with ferritins, cells are incubated for 1-4 hours in ferritin solution 0.8 mg/ml in standard culture conditions. The frame of ferritin concentration may vary at least between 0.01 and 4 mg/ml as well as incubation time (5 min-6 hours or more). Adjusting time and concentration of ferritin load to cells, the influence of ferritin and treatment conditions on cell viability should be minded.
Obtained cells are incubated in haemoglobin solution for a time and at the concentration sufficient to ensure proper ratio of haemoglobin/cell for their full load and also to ensure proper drug content to obtain therapeutic effect or contrast for proper imaging. The time and concentration may vary depending on the number of molecules linked with the haemoglobin molecule, status of cell activation, condition and number of their intended administration. […]

cancer cells = test: Transfer of iron binding proteins from loaded leukocytes to co-cultured cancer cells; format: cell-based; conditions: for transport to cancer cells from granulocytes: loaded granulocytes (FIG. 15); for transport to cancer cells from lymphocytes: loaded lymphocytes (FIG. 16); for transport to cancer cells from macrophages: loaded macrophages, mouse mammary, colon, canine mammary, human breast, pancreatic, bladder cancer cells; for transport to cancer cells from monocytes: loaded monocytes (FIG. 14)
From the text: However, in case of cancer cells the ratio of both cell types is crucial. The more macrophages the better and faster the transport is. The most efficient transfer to the cancer cells was observed when ratio of macrophages to cancer cells was 1:1 or more.
This transfer of compounds conjugated with anticancer drugs made the effect inducing apoptosis in cancer cells (FIG. 6, 13).
However, the ratio of both cell types is important. The more monocytes the better and faster the transport is. The most efficient transfer to the cancer cells was observed when ratio of monocytes to cancer cells was 1:1 or more.
However, the ratio of both cell types is crucial. The more granulocytes the better and faster the transport is. The most efficient transfer to the cancer cells was observed when ratio of granulocytes to cancer cells was 1:1 or more.
However, the ratio of both cell types is crucial. The more lymphocytes the better and faster the transport is. The most efficient transfer to the cancer cells was observed when ratio of lymphocytes to cancer cells was 1:1 or more.

Substance	uptake of iron binding protein by cells (CD45^+ leukocyte cell)	transport to cancer cells from granulocytes (cancer cells)	transport to cancer cells from lymphocytes (cancer cells)	transport to cancer cells from macrophages (cancer cells)	transport to cancer cells from monocytes (cancer cells)
haemoglobins: human haemoglobin prepared from fresh red cells (SEQ ID NO: 18 or 22)	very easily uptake	very easily transport	very easily transport	very easily transport	very easily transport
transferrins: human holo-transferrin purified from serum (SEQ ID NO: 28)	very easily uptake	very easily transport	very easily transport	very easily transport	very easily transport
